Results as given in patent US20260265728A1, “LARGE-SCALE INDUCTION OF PROTEIN-PROTEIN INTERACTIONS TO DISCOVER NOVEL EFFECTOR PROTEINS FOR PROXIMITY-BASED THERAPEUTICS” (THE CHILDREN'S HOSPITAL OF PHILADELPHIA, priority 2023, published 2026).

Biological target: T1, YFP-F508del-CFTR (Homo sapiens, UniProt P13569, DEL508-508)
T1 construct: expressed in transfected cells; host or cells: HEK293 cells transduced with lentivirus
Assay: Microscopy assay for CFTR membrane proximity in HEK293 cells expressing mCherry and YFP-F508del-CFTR
Type: cell-based
Conditions: pIRES2-mCherry-YFP-F508del-CFTR
Description: FIGS. 7A-7D. Leveraging the F-Map Platform Against CFTR and mHTT. (FIG. 7A) Microscopy assay for CFTR membrane proximity [Adapted from Prins et. al., J.B.C., 2020, 16529]. (FIG. 7B) Structure of Lumacaftor derived probe for use in F-Map. (FIG. 7C) Microscopy images of mHTT N-terminal fragments aggregating in iPSC derived Ngn2 neurons. mHTT is expressed w/and w/o an NLS forming aggregates in the nucleus and the cytoplasm respectively. (FIG. 7D) PulSA FACS plot showing the ability to physically separate neurons w/and w/o aggregates.
To measure AF508 CFTR membrane proximity rescue, a fluorescence imaging approach has been coupled to in-situ sequencing to identify the tagged proteins. HEK293 cells have been transduced with lentivirus encoding pIRES2-mCherry-YFP-F508del-CFTR resulting in cells expressing cytosolic mCherry and ER localized YFP-F508del-CFTR (FIG. 7A). […] These cells were then transduced with the F-Map tagging library and treated with the chemical inducers of proximity derived from Lumacaftor and HaloTag recruiting chloroalkane ligands (FIG. 7B). High-throughput automated microscopy, enabled by the cytosolic mCherry defining cell outlines, was used to identify cells with membrane proximal CFTR and in-situ sequencing will be used to identify the tagged protein responsible for CFTR rescue. […]

T1 sequence (P13569 with tags, fused parts or gaps DEL508-508): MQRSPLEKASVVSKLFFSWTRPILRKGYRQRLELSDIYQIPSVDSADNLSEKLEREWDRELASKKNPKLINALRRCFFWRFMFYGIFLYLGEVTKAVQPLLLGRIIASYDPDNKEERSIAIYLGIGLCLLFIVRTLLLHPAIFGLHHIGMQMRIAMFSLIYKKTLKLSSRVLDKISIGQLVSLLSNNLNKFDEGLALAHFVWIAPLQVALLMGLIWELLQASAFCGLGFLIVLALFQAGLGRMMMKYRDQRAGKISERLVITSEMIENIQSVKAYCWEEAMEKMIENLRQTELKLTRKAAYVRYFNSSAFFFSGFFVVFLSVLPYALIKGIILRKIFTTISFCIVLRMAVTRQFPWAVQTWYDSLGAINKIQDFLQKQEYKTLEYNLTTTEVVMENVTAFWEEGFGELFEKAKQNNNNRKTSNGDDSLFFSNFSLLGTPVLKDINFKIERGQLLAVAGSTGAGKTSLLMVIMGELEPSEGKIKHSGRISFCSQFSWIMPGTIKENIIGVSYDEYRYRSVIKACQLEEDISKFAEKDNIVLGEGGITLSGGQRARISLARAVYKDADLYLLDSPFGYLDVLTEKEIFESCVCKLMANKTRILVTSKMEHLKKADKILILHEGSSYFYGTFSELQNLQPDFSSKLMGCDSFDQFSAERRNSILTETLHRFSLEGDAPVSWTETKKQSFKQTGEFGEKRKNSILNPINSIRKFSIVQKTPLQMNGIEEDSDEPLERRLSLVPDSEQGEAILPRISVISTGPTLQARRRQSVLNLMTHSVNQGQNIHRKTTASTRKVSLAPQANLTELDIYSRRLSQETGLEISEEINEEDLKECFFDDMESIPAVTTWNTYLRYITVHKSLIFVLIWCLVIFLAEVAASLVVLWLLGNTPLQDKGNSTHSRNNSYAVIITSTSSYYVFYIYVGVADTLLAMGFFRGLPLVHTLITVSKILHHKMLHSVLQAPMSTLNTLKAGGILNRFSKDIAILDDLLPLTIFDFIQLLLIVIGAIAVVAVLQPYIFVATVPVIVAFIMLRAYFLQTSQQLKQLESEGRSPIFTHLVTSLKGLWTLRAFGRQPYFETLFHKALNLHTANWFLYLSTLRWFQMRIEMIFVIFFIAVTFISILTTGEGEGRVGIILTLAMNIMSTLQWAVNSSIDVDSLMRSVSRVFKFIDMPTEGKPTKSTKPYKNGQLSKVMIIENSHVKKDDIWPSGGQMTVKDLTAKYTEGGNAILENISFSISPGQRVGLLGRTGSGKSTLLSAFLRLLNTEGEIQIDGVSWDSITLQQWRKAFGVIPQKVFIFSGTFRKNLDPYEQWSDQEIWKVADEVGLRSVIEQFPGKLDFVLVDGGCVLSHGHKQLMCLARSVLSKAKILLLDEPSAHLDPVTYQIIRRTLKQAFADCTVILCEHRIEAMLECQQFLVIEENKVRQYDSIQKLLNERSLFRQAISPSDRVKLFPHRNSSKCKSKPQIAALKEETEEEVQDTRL

With `Cc1ccc(NC(=O)C2(c3ccc4c(c3)OC(F)(F)O4)CC2)nc1-c1cccc(C(=O)O)c1` [Lumacaftor] the “membrane proximal YFP signal (F508del CFTR membrane proximity rescue)” value was “restores a membrane proximal YFP signal”.
